Data as given in patent publication US4988691A (priority 1989, dated 1991).
Counter-ions that a name gives are not always drawn. Like-named read-outs stand apart in the source and are kept apart here.

Tests used:
5-HT1 receptors = assay: affinity for 5-HT1 receptors (3H serotonin binding), rat cortex membranes; details: 3H-serotonin 5 nM; rat frontal cortex membranes
[1] = target: T1, contracturing effect of histamine (Cavia porcellus, UniProt P31389); assay: antihistaminic activity in vitro (contracturing effect of histamine on isolated guinea pig small intestine); set-up: species or system Guinea pigs; details: vs histamine; guinea pig small intestine; 37° C.; test compounds 10^-5 M; read-out: Antihistaminic activity (pA2) (converted)
T1 construct: Segments measuring 5-6 cm were drawn form the end portion of the small intestine; from tissue; host or cells: guinea pig terminal small intestine (ileum)
T1 sequence (P31389 whole entry): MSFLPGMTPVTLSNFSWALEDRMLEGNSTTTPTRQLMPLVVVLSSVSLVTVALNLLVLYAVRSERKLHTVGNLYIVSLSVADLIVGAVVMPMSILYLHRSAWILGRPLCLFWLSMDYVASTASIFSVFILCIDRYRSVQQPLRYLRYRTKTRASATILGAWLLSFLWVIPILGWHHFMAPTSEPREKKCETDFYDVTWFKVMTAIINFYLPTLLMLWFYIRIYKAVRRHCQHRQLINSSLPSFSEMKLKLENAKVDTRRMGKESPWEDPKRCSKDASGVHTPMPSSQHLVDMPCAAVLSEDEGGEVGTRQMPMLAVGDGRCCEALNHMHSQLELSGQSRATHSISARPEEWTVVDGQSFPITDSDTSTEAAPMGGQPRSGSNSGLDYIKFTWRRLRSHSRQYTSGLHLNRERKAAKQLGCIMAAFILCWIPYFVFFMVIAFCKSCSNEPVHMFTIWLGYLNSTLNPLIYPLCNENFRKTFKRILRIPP

5-HT3 receptors = target: T2, 5-HT3 receptors (Oryctolagus cuniculus, UniProt A0A5F9C9J3); assay: anti-5-HT3 activity in vitro on the isolated vagus nerve of rabbit
T2 construct: from tissue; host or cells: isolated rabbit vagus nerve
T2 sequence (A0A5F9C9J3 1-494): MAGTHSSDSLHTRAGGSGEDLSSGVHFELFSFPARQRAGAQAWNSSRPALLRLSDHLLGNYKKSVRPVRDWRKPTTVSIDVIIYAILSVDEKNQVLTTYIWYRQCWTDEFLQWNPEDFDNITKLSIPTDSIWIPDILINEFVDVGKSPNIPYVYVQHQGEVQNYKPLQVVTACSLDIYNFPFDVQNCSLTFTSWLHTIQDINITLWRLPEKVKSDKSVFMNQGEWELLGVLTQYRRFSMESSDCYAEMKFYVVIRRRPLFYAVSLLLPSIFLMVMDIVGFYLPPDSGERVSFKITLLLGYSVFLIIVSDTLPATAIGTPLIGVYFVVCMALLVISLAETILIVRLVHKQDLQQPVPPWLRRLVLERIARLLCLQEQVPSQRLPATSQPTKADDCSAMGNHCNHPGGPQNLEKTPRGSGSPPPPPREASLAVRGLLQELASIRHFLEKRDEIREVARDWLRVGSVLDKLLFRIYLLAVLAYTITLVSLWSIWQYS
Protocol: (b) Evaluation of the anti-5-HT3 activity in vitro on the vagus nerve of rabbit. Male albino New Zeland rabbits weighing about 3 kg were sacrified by an air injection in the edge auriculaers vein. The two vagus nerves, drawn as soon as possible, were placed in a bath of Locke solution having the following composition: 154 mM NaCl; 5.5 mM KCl; 2.2 mM CaCl2; 5 mM glucose; 8 mM TRIS, the pH being adjusted at 7.6 by addition of HCl. Nerves were stripped of their epineurium and transferred into a device described by Kosterlitz H. W. et al., [J. Physiol., 183, IP-3P, (1966)] consisting of four compartments separated by means of 3 elastic membranes having a little hole through which the nerve passes. The glucose concentration perfusing a portion of the nerve was 315 mM. The overmaximal electric stimulation by a single shock at 10 seconds intervals elicited a potential visualized on a storage oscilloscope. In the potential the complexes due to the excitation of fibers A, B and C were distinguished. A serotonin solution applied to the nerve causes the dose-dependent fall of the potential for fibers C only. The non variation of the A-B complex when applying serotonin and the test compounds of formula I indicates on one hand the specific action of the substances for receptors relating to fibers C only (5-HT3 receptors) and on the other hand the absence of local-anaesthetic activity. Tests were performed at room temperature (24°-25° C.). The optimum maximum reduction of the potential of fibers C by serotonin resulted to be 44%. This reduction was adopted as maximum effect (100%). For each nerve a dose-response curve was constructed with cumulative doses of serotonin. After having washed serotonin and recovered the initial potential, the nerve was balanced with a fixed concentration of the compound of formula I for 60 minutes and successively the dose-response curve to serotonin was repeated, the compound of formula I being always present in the same concentration. After having applied a serotonin concentration sufficient to produce the highest effect, the preparation was washed and thereafter it was balanced again for 60 minutes with a solution of the same compound of formula I having a higher concentration. The procedure was then repeated. For each dose of the compound of formula I the test was repeated more than 5 times. The negative […] logarithm of the molar concentration of the compound of formula I which gives a 50% reduction of the effect of the agonist substance (pA2) was calculated. In table 7, the pA2 values of some compounds of formula I are reported.

[2] = target: T3, contracturing effect of acetylcholine (Cavia porcellus, UniProt H0W1Z3); assay: anticholinergic activity in vitro (contracturing effect of acetylcholine on isolated guinea pig small intestine); set-up: species or system Guinea pigs
T3 construct: Segments measuring 5-6 cm were drawn form the end portion of the small intestine; from tissue; host or cells: guinea pig terminal small intestine (ileum)
T3 sequence (H0W1Z3 1-590): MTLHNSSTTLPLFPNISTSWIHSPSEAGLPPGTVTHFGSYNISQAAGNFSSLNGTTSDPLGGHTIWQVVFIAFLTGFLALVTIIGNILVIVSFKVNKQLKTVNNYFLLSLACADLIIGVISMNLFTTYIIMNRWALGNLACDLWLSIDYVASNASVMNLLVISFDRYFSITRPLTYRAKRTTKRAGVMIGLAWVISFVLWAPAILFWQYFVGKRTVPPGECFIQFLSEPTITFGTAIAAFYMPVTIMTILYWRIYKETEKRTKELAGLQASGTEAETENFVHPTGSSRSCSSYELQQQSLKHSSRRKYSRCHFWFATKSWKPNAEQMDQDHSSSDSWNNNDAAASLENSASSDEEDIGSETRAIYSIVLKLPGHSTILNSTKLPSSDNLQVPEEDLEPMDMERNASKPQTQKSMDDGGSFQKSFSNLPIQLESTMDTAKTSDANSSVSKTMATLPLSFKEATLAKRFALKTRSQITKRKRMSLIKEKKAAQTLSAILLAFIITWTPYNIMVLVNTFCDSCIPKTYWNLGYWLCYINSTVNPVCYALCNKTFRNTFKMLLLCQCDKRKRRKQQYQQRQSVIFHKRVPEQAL

[3] = tested on: receptors for benzodiazepins; assay: displacement of 3H-flunitrazepam from benzodiazepine receptors, rat cerebral cortex membranes; format: binding; details: 3H-flunitrazepam 1nM
guinea pig back = assay: local anaesthetic activity in the test of the guinea pig back in vivo (intracutaneous infiltration); details: guinea pig back, cutaneous anaesthesia, 0.25 ml
Protocol: (b) Evaluation of the local anaesthetic activity in the test of the guinea pig back in vivo in comparison with lidocaine.
The local anaesthetic activity was evaluated by the method of intracutaneous infiltration in the guinea pig back as described by Bulbring E. and Wajda I. [(J. Pharmacol. Exp. Ther. 85, 78, (1945)].
Female guinea pigs weighin 400-500 g were treated intracutaneously in 4 points of their back.
At 5 minutes intervals, it was determined the reactivity of the animal to pain in each area by considering the number of responses to 6 pain stimulations.
Compounds of formula I, compound R and lidocaine, dissolved at different concentration in physiological solution adjusting the pH at 7 by addition of NaHCO3 were injected under the skin at the constant volume of 0.25 ml.
The distribution of the treatments in the 4 areas of the back was carried out according to the scheme of the Latin square. Experiments were carried out in blind.
As an example, the ED50 values for compound No. 8, compound R and lidocaine determined at 5, 15 and 30 minutes after the administration are reported in table 4.

rat sciatic nerve = assay: local anaesthetic activity on sciatic nerve preparation in vitro; details: read-out: ED50 (C.L. 95%)
Ca^++ receptors = assay: displacement of 3H-nitrendipine from Ca++ receptors, rat brain membranes; format: binding; details: 3H-nitrendipine 1nM
5-HT2 receptors = 5-HT2 receptors (Rattus norvegicus, UniProt P14842); assay: affinity for 5-HT2 receptors (3H-spiroperidol binding), rat cortex membranes; details: 3H-spiroperidol […]; rat frontal cortex membranes
Sequence of 5-HT2 receptors (P14842 whole entry): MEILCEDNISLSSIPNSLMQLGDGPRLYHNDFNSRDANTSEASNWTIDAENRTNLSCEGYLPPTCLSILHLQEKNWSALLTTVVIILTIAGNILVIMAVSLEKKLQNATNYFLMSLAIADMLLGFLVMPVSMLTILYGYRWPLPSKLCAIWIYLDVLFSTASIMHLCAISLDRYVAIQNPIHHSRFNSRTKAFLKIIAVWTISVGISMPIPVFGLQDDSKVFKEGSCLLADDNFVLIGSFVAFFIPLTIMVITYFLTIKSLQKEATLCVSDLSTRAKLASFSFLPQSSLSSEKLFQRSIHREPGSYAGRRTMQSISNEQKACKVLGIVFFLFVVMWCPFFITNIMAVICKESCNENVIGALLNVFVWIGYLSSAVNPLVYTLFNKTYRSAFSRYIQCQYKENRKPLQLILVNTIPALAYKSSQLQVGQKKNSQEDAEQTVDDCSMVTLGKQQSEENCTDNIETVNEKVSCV

[4] = vs acetylcholine, guinea pig small intestine, 37° C., test compounds 10^-5 M, read-out: Antichlonergic activity (pA2) (converted)

Compound: O=C(c1ccc(F)cc1)C1CCN(CCn2c(=O)[nH]c3ccccc3c2=O)CC1 [ketanserine, reference compound]
- IC50 (5-HT1 receptors): 10 µM

Compound: Cc1cc(C(=O)N[C@@H]2C[C@H]3CC[C@@H](C2)N3C)no1 [Compound 15, N-[3-(exo-8-methyl-8-azabicyclo[3,2,1]octyl)]-5-methylisoxazole-3-carboxamide]
- Kb [1]: 50.1 µM

Compound: NCCc1c[nH]c2ccc(O)cc12 [serotonin, reference compound]
- optimum maximum reduction of the potential of fibers C (5-HT3 receptors; serotonin applied to rabbit vagus nerve, 24°-25° C.): 44%

Compound: Cc1cc(C(=O)N[C@H]2C[C@H]3CC[C@@H](C2)N3C)no1 [Compound 16, N-[3-(endo-8-methyl-8-azabicyclo[3,2,1]octyl)]-5-methylisoxazole-3-carboxamide]
- Kb [2]: 126 µM
- Kb [1]: 7.94 µM

Compound: CN1C(=O)CN=C(c2ccccc2)c2cc(Cl)ccc21 [diazepam, reference compound]
- Displacement activity at benzodiazepine receptors [3]: 4

Compound: CCN(CC)CC(=O)Nc1c(C)cccc1C [lidocaine]
- ED50 (C.L. 95%), 5 min. (guinea pig back; 5 min. after administration): 5.8 (4.9-6.8) mM
- ED50 (C.L. 95%), 15 min. (guinea pig back; 15 min. after administration): 7.6 (6.8-8.4) mM
- ED50 (C.L. 95%), 30 min. (guinea pig back; 30 min. after administration): 15.2 (13.8-16.6) mM
- IC50 (rat sciatic nerve; rat, sciatic nerve, 8 min): 600 µM

Compound: Cc1cc(C(=O)O[C@H]2C[C@H]3CC[C@@H](C2)N3C)on1 [Compound 5, 3-methylisoxazole-5-carboxylic acid 3-(endo-8-methyl-8-azabicyclo[3,2,1]octyl) ester hydrochloride]
- Kb (5-HT3 receptors): 0.00158 µM
- Kb [2]: 31.6 µM
- Displacement activity at benzodiazepine receptors [3]: inactive
- Displacement activity at receptors of Ca++ (Ca^++ receptors): inactive
- Kb [1]: 12.6 µM

Compound: Cc1cc(C(=O)NC2CN3CCC2CC3)no1 (stereo not shown) [Compound 17, N-[3-(1-azabicyclo[2,2,2]octyl)]-5-methylisoxazole-3-carboxamide]
- Kb [1]: 50.1 µM

Compound: Cc1cc(C(=O)O[C@H]2C[C@H]3CC[C@@H](C2)[N+]3(C)C)no1 [Compound 18, endo-8,8-dimethyl-3-(5-methylisoxazole-3-carbonyloxy)-8-azoniabicyclo[3,2,1]octane bromide]
- Affinity (IC50) to 5-HT1 receptors (5-HT1 receptors): inactive
- Affinity (IC50) to 5-HT2 receptors (5-HT2 receptors): inactive
- Kb [2]: 6.31 µM
- Kb [1]: 15.8 µM
- IC50 (rat sciatic nerve; rat, sciatic nerve, 8 min): > 15000 µM

Compound: CCN1CCCC(NC(=O)c2cc(C)on2)C1 (stereo not shown) [Compound 14, N-(1-ethyl-3-piperidinyl)-5-methylisoxazole-3-carboxamide]
- Kb [1]: 316 µM

Compound: Cc1cc(C(=O)OC2CCCN(C)C2)no1 (stereo not shown) [Compound 10, 5-methylisoxazole-3-carboxylic acid 3-(1-methylpiperidinyl) ester hydrochloride]
- Affinity (IC50) to 5-HT2 receptors (5-HT2 receptors): inactive
- Kb [2, 4]: 50.1 µM
- Kb [1]: 200 µM

Compound: CN1[C@@H]2CC[C@H]1C[C@@H](OC(=O)c1cc(OCc3ccccc3)no1)C2 [Compound 3, 3-benzyloxyisoxazole-5-carboxylic acid 3-(endo-8-methyl-8-azabicyclo[3,2,1]octyl) ester hydrochloride]
- Kb [2]: 2 µM
- Kb [1]: 2.51 µM

Compound: COc1cc(C(=O)O[C@H]2C[C@H]3CC[C@@H](C2)N3C)on1 [Compound 6, 3-methoxyisoxazole-5-carboxylic acid 3-(endo-8-methyl-8-azabicyclo[3,2,1]octyl) ester hydrochloride]
- Kb (5-HT3 receptors): 0.00126 µM
- Kb [2]: 12.6 µM
- Kb [1]: 6.31 µM
- IC50 (rat sciatic nerve; rat, sciatic nerve, 8 min): > 15000 µM

Compound: Cc1cc(C(=O)OC2CCN(C)CC2)no1 [Compound 9, 5-methylisoxazole-3-carboxylic acid 4-(1-methylpiperidinyl) ester hydrochloride]
- Kb [2, 4]: 25.1 µM
- Kb [1]: 10 µM
- IC50 (rat sciatic nerve; rat sciatic nerve in vitro, 8 minutes contact): > 15000 µM
